Data reported in article PMC9976893, “Dynamic states of eIF6 and SDS variants modulate interactions with uL14 of the 60S ribosomal subunit” (Nucleic Acids Research, 2023).

Tested on: full-length human eIF6
Assay: Surface plasmon resonance of uL14 peptides on immobilized eIF6
Conditions: BIAcore S200, eIF6 on CM5 chip, peptide 0-500 μM in 20 mM HEPES pH 7.4, 150 mM NaCl, 0.01% BSA, 0.002% Tween 20; repeated three times; non-specific binding subtracted
Protocol: SPR analyses were carried out using a BIAcore S200 instrument (GE-Healthcare). eIF6 (50 μg/ml) was solubilized in 20 mM ammonium acetate pH 4.0 and immediately immobilized on a CM5 sensor chip (4913 Response Units [RU] using NHS/EDC chemistry). After baseline stabilization, titrations were performed by injecting increasing concentrations (0–500 μM, 1:2 dilutions) of uL14-WT ([…]), the site-specific mutant peptides, or the uL14-ΔC ([…]) peptide, solubilized in running buffer (20 mM HEPES pH 7.4, 150 mM NaCl, 0.01% BSA, and 0.002% Tween 20). At the end of each titration, a solution of 20 mM HEPES pH 7.4 and 1.5 M NaCl was used to regenerate the chip. The flow rate was 25 μl/min. Peptides were solubilized in water and their concentration determined at 280 nm using the molar extinction coefficient ϵ280 = 5500 M^−1 cm^−1. To ensure reproducibility, each experiment was repeated three times. Sensograms were corrected for baseline.
For SPR studies, full-length elF6 was immobilized to the surface, and the C-terminal peptide of uL14 (aa 121–140) was used in the fluid phase (Figure 2D). […] The contribution of non-specific binding of the peptide to the surface was subtracted for each sensorgram. […] It further highlighted the significance of the N135 and S138 for interaction with eIF6. […]

binding to immobilized eIF6 (SPR): complete loss in binding
Sequence: VAKECADLWPRI [uL14-ΔC]
